In patent publication US6130238A, “3-(cyclohexanoheteroarylidenyl)-2-indolinone protein tyrosine kinase inhibitors” (Sugen, Inc., priority 1998, dated 2000):

Assays:
PDGFR = experiment: PDGF-R ELISA (U1242 cells); assay type: cell-based
Method: (§1) IC50 refers to the amount (in micromoles, μM) of compound required to achieve 50% inhibition of the activity of the particular kinase being tested as compared to the activity of an untreated control.
(§2) The cellular/catalytic assays described herein are performed in an ELISA format. The general procedure is a follows: a compound is introduced to cells expressing the test kinase, either naturally or recombinantly, for some period of time after which, if the test kinase is a receptor, a ligand known to activate the receptor's activity is added. The cells are lysed and the lysate is transferred to the wells of an ELISA plate previously coated with a specific antibody recognizing the substrate of the enzymatic phosphorylation reaction. Non-substrate components of the cell lysate are washed away and the amount of phosphorylation on the substrate is detected with an antibody specifically recognizing phosphotyrosine compared with control cells that were not contacted with a test compound.
All cell culture media, glutamine, and fetal bovine serum can be purchased from Gibco Life Technologies (Grand Island, NY) unless otherwise specified. All cells are grown in a humid atmosphere of 90-95% air and 5-10% CO2 at 37° C. All cell lines are routinely subcultured twice a week and are negative for mycoplasma as determined by the Mycotect method (Gibco). […]

EGFR = molecular target: T1, EGFR (Homo sapiens, UniProt P00533); experiment: EGF Receptor ELISA (NIH 3T3/C7 cells); assay type: cell-based
T1 construct: expressed in transfected cells; host or cells: NIH 3T3/C7 cell line
T1 sequence (P00533 25-1210): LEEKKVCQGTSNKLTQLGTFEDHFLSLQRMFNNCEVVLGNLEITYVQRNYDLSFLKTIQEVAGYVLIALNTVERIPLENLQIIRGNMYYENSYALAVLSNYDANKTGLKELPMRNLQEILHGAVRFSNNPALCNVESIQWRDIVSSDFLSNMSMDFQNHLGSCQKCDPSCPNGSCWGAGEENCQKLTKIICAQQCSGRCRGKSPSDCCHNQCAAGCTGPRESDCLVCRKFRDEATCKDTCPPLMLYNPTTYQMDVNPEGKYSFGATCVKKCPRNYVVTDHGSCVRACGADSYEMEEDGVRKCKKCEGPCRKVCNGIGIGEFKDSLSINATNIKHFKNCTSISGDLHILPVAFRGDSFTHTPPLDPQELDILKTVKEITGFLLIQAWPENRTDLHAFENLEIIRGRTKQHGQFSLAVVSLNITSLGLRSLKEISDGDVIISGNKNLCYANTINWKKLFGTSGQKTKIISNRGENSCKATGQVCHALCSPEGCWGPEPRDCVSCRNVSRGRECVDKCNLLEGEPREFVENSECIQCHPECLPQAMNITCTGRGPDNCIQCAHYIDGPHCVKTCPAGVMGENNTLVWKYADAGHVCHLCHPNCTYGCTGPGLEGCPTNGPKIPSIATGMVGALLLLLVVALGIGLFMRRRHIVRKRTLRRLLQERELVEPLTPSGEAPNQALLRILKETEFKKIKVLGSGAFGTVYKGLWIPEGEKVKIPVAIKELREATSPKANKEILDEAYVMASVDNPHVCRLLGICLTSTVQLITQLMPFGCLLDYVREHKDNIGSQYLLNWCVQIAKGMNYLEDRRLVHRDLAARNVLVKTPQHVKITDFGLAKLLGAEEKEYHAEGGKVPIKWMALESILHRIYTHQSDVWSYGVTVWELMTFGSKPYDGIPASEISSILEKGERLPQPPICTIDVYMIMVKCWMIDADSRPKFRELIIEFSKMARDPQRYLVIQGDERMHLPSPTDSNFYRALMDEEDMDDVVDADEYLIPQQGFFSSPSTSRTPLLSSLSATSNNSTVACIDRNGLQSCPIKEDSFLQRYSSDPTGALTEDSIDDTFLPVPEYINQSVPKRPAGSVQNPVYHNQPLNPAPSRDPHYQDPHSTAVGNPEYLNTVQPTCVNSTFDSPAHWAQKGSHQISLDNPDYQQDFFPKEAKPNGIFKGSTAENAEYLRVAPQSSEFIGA
Method: as §1, §2
EGF Receptor kinase activity in cells genetically engineered to express human EGF-R can be measured as described below:
1. […]
12. The maximal phosphotyrosine signal is determined by subtracting the value of the negative controls from the positive controls. The percent inhibition of phosphotyrosine content for extract-containing wells is then calculated, after subtraction of the negative controls.

FAK = FAK (Homo sapiens, UniProt Q05397); experiment: FAK kinase inhibition; assay type: biochemical
Sequence of FAK (Q05397 whole entry, species assumed): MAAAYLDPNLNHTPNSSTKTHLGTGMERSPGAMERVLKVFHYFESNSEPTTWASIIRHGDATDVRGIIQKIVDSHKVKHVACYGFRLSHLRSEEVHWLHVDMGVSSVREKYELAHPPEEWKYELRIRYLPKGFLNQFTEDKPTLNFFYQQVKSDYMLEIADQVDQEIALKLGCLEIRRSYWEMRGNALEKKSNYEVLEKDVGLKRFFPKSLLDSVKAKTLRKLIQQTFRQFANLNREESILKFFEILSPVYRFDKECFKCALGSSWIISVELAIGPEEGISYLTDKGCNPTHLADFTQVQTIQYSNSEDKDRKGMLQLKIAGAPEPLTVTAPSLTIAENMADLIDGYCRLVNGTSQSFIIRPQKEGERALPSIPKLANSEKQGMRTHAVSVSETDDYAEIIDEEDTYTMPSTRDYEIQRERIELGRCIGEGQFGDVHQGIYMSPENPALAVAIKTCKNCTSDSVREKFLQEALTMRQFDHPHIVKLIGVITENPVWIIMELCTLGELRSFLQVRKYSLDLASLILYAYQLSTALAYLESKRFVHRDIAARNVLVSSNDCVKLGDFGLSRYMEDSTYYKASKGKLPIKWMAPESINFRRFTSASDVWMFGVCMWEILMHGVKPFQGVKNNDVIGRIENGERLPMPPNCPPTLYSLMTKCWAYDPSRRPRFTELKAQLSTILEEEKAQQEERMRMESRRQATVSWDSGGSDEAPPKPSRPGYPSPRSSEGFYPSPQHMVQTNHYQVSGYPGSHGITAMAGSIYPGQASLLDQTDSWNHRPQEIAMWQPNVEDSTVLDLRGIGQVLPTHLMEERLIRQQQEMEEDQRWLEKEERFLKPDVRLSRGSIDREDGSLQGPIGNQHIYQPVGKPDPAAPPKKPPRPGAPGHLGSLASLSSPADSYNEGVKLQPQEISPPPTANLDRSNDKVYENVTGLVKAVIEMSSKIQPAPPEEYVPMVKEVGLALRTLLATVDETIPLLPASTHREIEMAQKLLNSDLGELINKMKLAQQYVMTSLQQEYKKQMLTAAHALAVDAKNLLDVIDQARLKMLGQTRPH
Source text: as §1

SRC = molecular target: T2, SRC (Gallus gallus, UniProt P00523); experiment: Biochemical src assay--ELISA
T2 construct: made in house; host or cells: Schizosaccharomyces pombe SP200, pRSP expression plasmid; yeast from Courtneidge Laboratory (Sugen)
Source text: as §1
g. Biochemical src assay--ELISA
This assay is used to determine src protein kinase activity measuring phosphorylation of a biotinylated peptide as the readout.
h. Anti-src (327) mab: Schizosaccharomyces Pombe is used to express recombinant Src (Superti-Furga, et al., EMBO J., 12:2625-2634; Superti-Furga, et al., […]., 14:600-605). S. Pombe strain SP200 (h-s leul.32 ura4 ade210) is grown as described and transformations are pRSP expression plasmids are done by the lithium acetate method (Superti-Furga, supra). Cells are grown in the presence of 1 μM thiamine to repress expression from the nmtl promoter or in the absence of thiamine to induce expression.
a. Preparation of src coated ELISA plate.
(§3) c. Kinase assay procedure.
2. Add 0.08 ml Kinase Reaction Mixture per well (containing 10 μl of 10× Kinase Buffer and 10 μM (final concentration) biotin-EEEYEEYEEEYEEEYEEEY per well diluted in water.
(§4) 3. Add 10 μl of compound diluted in water containing 10% DMSO and pre-incubate for 15 minutes at room temperature.
4. Start kinase reaction by adding 10 μl/well of 0.05 mM ATP in water (5 μM ATP final).
5. Shake ELISA plate for 15 min. at room temperature.
10. […]

HUV-EC-C cells [1] = experiment: HUV-EC-C Assay, VEGF (3H-thymidine incorporation); assay type: cell-based, human; conditions: read-out: HUV-EC-C (ATCC) VEGF
Source text: as §1
(§5) The cellular/biologic assays described herein measure the amount of DNA made in response to activation of a test kinase, which is a general measure of a proliferative response. The general procedure for this assay is as follows: a compound is introduced to cells expressing the test kinase, either naturally or recombinantly, for some period of time after which, if the test kinase is a receptor, a ligand known to activate the receptor's activity is added. After incubation at least overnight, a DNA labeling reagent such as Bromodeoxy-uridine (BrdU) or 3H-thymidine is added. The amount of labeled DNA is detected with either an anti-BrdU antibody or by measuring radioactivity and is compared to control cells not contacted with a test compound.
(§6) The following protocol may also be used to measure a compound's activity against PDGF-R, FGF-R, VEGF, aFGF or Flk-1/KDR, all of which are naturally expressed by HUV-EC cells.
1. […]

LCK = molecular target: T3, LCK (Homo sapiens, UniProt P06239); experiment: Biochemical lck Assay--ELISA
T3 construct: made in house; host or cells: Schizosaccharomyces pombe SP200, pRSP expression plasmid
T3 sequence (P06239 whole entry, species assumed): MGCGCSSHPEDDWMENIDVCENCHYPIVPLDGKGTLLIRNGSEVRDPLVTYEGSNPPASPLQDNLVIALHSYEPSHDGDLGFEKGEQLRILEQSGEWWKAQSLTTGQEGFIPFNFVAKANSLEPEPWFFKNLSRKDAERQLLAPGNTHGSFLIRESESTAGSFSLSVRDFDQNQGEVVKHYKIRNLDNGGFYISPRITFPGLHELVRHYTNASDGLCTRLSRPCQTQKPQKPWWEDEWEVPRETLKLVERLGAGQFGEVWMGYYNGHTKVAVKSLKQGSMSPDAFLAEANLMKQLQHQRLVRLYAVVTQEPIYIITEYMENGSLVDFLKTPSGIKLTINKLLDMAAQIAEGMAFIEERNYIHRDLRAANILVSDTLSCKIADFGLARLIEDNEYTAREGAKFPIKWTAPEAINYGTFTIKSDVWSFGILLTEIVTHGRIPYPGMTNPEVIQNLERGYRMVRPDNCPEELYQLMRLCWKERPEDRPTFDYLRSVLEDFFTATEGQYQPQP
Source text: as §1
h. Biochemical lck Assay--ELISA
This assay is used to determine lck protein kinase activities measuring phosphorylation of GST-.zeta. as the readout.
a. Yeast transformed with lck. Schizosaccharomyces Pombe is used to express recombinant Lck (Superti-Furga, et al., EMBO J, 12:2625-2634; Superti-Furga, et al., Nature Biotech., 14:600-605). S. Pombe strain SP200 (h-s leul.32 ura4 ade210) is grown as described and transformations with pRSP expression plasmids are done by the lithium acetate method (Superti-Furga, supra). Cells are grown in the presence of 1 μM thiamine […].
a. Preparation of Lck coated ELISA plate.
as §3
2. Add 0.08 ml Kinase Reaction Mixture per well (containing 10 μl of 10× Kinase Buffer and 2 μg GST-.zeta. per well diluted with water).
as §4
4. Start kinase reaction by adding 10 μl/well of 0.1 mM ATP in water (10 μM ATP final).
5. Shake ELISA plate for 60 min. at room temperature.
14. Develop with Turbo TMB.

FLK-1R = molecular target: T4, FLK-1R (Mus musculus, UniProt P35918); experiment: FLK-1 receptor kinase activity, cellular ELISA (NIH3T3 C7#3 cells, VEGF stimulated); assay type: cell-based
T4 construct: expressed in transfected cells; host or cells: NIH3T3 C7#3 cells
T4 sequence (P35918 20-1345): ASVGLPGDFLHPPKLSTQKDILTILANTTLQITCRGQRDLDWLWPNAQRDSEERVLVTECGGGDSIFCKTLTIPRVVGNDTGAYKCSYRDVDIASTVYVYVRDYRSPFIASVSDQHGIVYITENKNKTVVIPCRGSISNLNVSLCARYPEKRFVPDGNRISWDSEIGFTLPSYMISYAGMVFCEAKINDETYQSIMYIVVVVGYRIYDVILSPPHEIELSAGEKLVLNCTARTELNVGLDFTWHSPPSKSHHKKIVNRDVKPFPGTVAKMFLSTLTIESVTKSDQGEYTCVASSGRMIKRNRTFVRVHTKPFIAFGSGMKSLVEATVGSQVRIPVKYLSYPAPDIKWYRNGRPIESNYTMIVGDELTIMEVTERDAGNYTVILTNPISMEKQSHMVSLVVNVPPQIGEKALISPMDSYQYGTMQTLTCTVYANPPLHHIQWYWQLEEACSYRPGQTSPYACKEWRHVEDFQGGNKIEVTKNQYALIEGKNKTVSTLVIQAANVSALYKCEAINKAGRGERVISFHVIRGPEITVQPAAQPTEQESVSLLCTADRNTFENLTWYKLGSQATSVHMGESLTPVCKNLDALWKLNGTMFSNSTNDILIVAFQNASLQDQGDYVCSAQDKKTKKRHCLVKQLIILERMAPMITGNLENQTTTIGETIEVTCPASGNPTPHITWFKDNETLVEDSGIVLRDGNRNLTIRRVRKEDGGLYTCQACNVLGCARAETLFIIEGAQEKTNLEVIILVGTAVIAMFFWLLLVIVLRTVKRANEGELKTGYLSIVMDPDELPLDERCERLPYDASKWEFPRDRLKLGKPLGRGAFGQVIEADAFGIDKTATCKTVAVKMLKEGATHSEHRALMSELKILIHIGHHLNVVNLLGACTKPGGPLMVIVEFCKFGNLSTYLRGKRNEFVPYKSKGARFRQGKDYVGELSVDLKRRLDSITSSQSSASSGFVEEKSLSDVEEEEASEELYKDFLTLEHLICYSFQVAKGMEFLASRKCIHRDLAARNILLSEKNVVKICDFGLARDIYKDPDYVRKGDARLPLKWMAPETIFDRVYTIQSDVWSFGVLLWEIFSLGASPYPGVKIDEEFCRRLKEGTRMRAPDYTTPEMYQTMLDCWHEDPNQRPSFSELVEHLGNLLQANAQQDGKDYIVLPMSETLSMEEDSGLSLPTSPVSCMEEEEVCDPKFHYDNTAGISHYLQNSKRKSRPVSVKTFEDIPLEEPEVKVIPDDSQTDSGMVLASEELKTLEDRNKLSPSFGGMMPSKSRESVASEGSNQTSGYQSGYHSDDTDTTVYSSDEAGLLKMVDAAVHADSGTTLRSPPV

HUV-EC-C cells [2] = experiment: HUV-EC-C Assay, aFGF (3H-thymidine incorporation); assay type: cell-based, human; conditions: read-out: HUV-EC-C (ATCC) aFGF
Source text: as §1, §5, §6
1. […]

IC50 (PDGFR)	IC50 (EGFR)	IC50 (FAK)	IC50 (SRC)	IC50 (HUV-EC-C cells [1]; Homo sapiens)	IC50 (HUV-EC-C cells [1])	IC50 (LCK)	IC50 (FLK-1R)	IC50 (HUV-EC-C cells [2]; Homo sapiens)	IC50 (HUV-EC-C cells [2])	SMILES
1000 nM	> 100000 nM	> 10000 nM	800 nM	650 nM	1070 nM	700 nM	> 100000 nM	2400 nM	3300 nM	NS(=O)(=O)c1ccc2c(c1)C(=CC1=CC3=C(CCCC3)C1)C(=O)N2 [3-(4,5,6,7-tetrahydroinden-2-methylidenyl)-5-[aminosulfonyl]-2-indolinone]
> 100000 nM	> 100000 nM	> 10000 nM	100 nM			500 nM	> 100000 nM			CN(C)S(=O)(=O)c1ccc2c(c1)C(=CC1=CC3=C(CCCC3)C1)C(=O)N2 [3-(4,5,6,7-tetrahydroinden-2-methyldenyl)-5-[N,N-dimethylaminosulfonyl]2-indolinone]
